Data on 41 compounds can be found in patent US20220324865A1 (Bayer Aktiengesellschaft, priority 2018, published 2022).

As usually defined, the IC50 is the point on the concentration scale where inhibition reaches its midpoint.

This experiment has as its target T1, human EP3 receptor (Homo sapiens, UniProt P43115).
T1 construct: expressed in transfected cells; host or cells: CHO K1 (Chinese Hamster Ovary), stably co-transfected with Galpha16 and mitochondrial clytin
T1 sequence (P43115 1-390): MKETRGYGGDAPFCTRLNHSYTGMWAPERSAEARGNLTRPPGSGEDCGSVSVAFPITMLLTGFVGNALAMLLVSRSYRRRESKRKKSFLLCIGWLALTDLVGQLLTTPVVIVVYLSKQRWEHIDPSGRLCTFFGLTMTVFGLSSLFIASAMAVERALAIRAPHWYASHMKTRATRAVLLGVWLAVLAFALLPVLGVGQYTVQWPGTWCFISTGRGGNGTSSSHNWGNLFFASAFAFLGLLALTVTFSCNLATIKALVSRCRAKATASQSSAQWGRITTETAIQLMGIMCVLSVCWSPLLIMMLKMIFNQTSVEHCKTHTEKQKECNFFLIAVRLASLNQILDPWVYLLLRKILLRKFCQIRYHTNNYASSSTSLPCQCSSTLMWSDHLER
Put plainly: Cellular in vitro assay for determining EP3 receptor activity (human EP3 cell line, sulprostone-stimulated calcium luminescence). The class given is cell-based. The following applies: CHO cells expressing human EP3 and mitochondrial Clytin; antagonist mode, sulprostone at EC50; read-out: EP3 CHO mtCLY ANTAG IC50. As to the method:
B-1. Cellular In Vitro Assay for Determining EP3 Receptor Activity
The identification of antagonists of the EP3 receptor from humans and rats as well as the quantification of the activity of the compounds of the invention was carried out using recombinant cell lines. These cell lines originally derive from a hamsters ovary epithelial cell (Chinese Hamster Ovary, CHO K1, ATCC: American Type Culture Collection, Manassas, Va. 20108, USA). The test cell lines constitutively express the human or rat EP3 receptors. The naturally Gαi-coupled human and rat EP3 receptors were stably co-transfected with Gα16 into cells that are also stably transfected with a mitochondrial form of the calcium-sensitive photoproteins Clytin (human EP3) or Photina (rat EP3), which, after reconstitution with the cofactor coelenterazine, emit light when there are increases in free calcium concentrations (Nature 1992, 358, 325-327; Gene 1995, 153 (2), 273-274). The resulting EP3 receptor cells react to stimulation of the recombinantly expressed EP3 receptors by the agonist sulprostone with intracellular release of calcium ions, which can be quantified by the resulting photoprotein luminescence. Antagonists inhibit the receptor signaling, leading to reduced calcium release and luminescence. The bioluminescence of the cell lines is detected using a suitable luminometer (Trends Pharmacol. Sci. 1996, 17, 235-237).
Human and Rat EP3 Cell Lines:
On the day before the assay, the cells are plated out in culture medium (OptiMEM, 1% FCS, 2 mM glutamine, 10 mM HEPES, 5 μg/ml coelenterazine) in 384-well microtiter plates and kept in a cell incubator (96% humidity, 5% v/v CO2, 37° C.). On the day of the assay, test compounds in various concentrations are placed for 10 minutes in the wells of the microtiter plate before the agonist sulprostone at EC50 concentration is added. The resulting light signal is measured immediately in a luminometer. All concentrations are measured in quadruples.
Turning to `Cc1ccc(-c2cn3nc(C(=O)N[C@@]4(C)CCS(=O)(=O)C4)c(C4CC4)c3c(=O)[nH]2)cc1F` (racemic) [6-376], the IC50 stood at 5.07 nM.

For `Cc1ccc(-c2cn3nc(C(=O)NC(c4ccc(F)cc4)C4(O)CC4)c(C4CC4)c3c(=O)[nH]2)cc1F` (racemic) [6-381], the IC50 was determined as 1.52 nM.

Turning to `Cc1ccc(-c2cn3nc(C(=O)NC(CO)C(F)(F)F)c(C4CC4)c3c(=O)[nH]2)cc1F` (racemic) [6-392], the IC50 was determined as 4.4 nM.

Regarding `Cc1ccc(-c2cn3nc(C(=O)NC(C(C)(C)O)C(F)(F)F)c(C4CC4)c3c(=O)[nH]2)cc1F` (racemic) [6-394], the IC50 amounted to 6.65 nM.

With `Cc1ccc(-c2cn3nc(C(=O)NCC(N)C(F)(F)F)c(C4CC4)c3c(=O)[nH]2)cc1F` (racemic) [6-395], the IC50 stood at 6.6 nM.

Regarding `Cc1ccc(-c2cn3nc(C(=O)NC(c4ccc(F)cc4)C(C)(C)O)c(C4CC4)c3c(=O)[nH]2)cc1F` (racemic) [6-402], the IC50 is 0.82 nM.

`CCN1CCC(NC(=O)c2nn3cc(-c4ccc(C)c(F)c4)[nH]c(=O)c3c2C2CC2)(C(F)(F)F)C1` (racemic) [6-404]: the IC50 came out at 5.95 nM.

As for `Cc1ccc(-c2cn3nc(C(=O)NCC(O)C(F)(F)F)c(C)c3c(=O)[nH]2)cc1F` (racemic) [6-409], the IC50 came to 7.12 nM.

On to `O=C(NCC(O)C(F)(F)F)c1nn2cc(-c3ccc(Cl)c(Cl)c3)[nH]c(=O)c2c1C1CC1` (racemic) [6-415], for which the IC50 stood at 1.05 nM.

As to `O=C(NC(c1ccc(F)cc1)C1(O)CC1)c1nn2cc(-c3ccc(Cl)c(Cl)c3)[nH]c(=O)c2c1C1CC1` (racemic) [6-422], the IC50 was 0.7 nM.

`Cc1ccc(-c2cn3nc(C(=O)NCC(O)C(F)(F)F)c(C4CC4)c3c(=O)[nH]2)cc1C` (racemic) [6-435]: the IC50 came out at 0.26 nM.

In the case of `Cc1ccc(-c2cn3nc(C(=O)NC(CN4CCOCC4)c4ccc(F)cc4)c(C4CC4)c3c(=O)[nH]2)cc1C` (racemic) [6-441], the IC50 stood at 1.45 nM.

Consider `Cc1ccc(-c2cn3nc(C(=O)NC(CN(C)C)c4ccc(F)cc4)c(C4CC4)c3c(=O)[nH]2)cc1C` (racemic) [6-444], for which the IC50 was 3.23 nM.

In the case of `Cc1ccc(-c2cn3nc(C(=O)NC(C)CN4CCOCC4)c(C4CC4)c3c(=O)[nH]2)cc1C` (racemic) [6-450], the IC50 came to 12 nM.

Consider `O=C(NCC(O)C(F)(F)F)c1nn2cc(-c3ccc4c(c3)OCCO4)[nH]c(=O)c2c1C1CC1` (racemic) [6-465], for which the IC50 amounted to 1.75 nM.

Turning to `O=C(NC1CCN(C2CC2)C1)c1nn2cc(-c3ccc4ccccc4c3)[nH]c(=O)c2c1C(F)(F)F` (racemic) [6-499], the IC50 worked out at 13 nM.

Regarding `CN(C)CC(NC(=O)c1nn2cc(-c3ccc4ccccc4c3)[nH]c(=O)c2c1C(F)(F)F)c1ccc(F)cc1` (racemic) [6-506], the IC50 turned out to be 5.45 nM.

Take `CN1CCC(NC(=O)c2nn3cc(-c4ccc5ccccc5c4)[nH]c(=O)c3c2C(F)(F)F)(c2ccc(F)cc2)C1` (racemic) [6-510]: the IC50 turned out to be 8.53 nM.

Consider `O=C(N[C@@H]1CCN(CC(F)(F)F)C1)c1nn2cc(-c3ccc4ccccc4c3)[nH]c(=O)c2c1C(F)(F)F` (racemic) [6-521], for which the IC50 worked out at 2.23 nM.

Take `CC(CN1CCOCC1)NC(=O)c1nn2cc(-c3ccc4ccccc4c3)[nH]c(=O)c2c1C(F)(F)F` (racemic) [6-522]: the IC50 was 16.9 nM.

`Cc1cc(-c2cn3nc(C(=O)NC(c4ccc(F)cc4)C4(O)CC4)c(C4CC4)c3c(=O)[nH]2)ccc1F` (racemic) [6-650]: the IC50 amounted to 1.55 nM.

`CN(C)CC(NC(=O)c1cc2c(=O)[nH]c(-c3ccc4ccccc4c3)cn2n1)c1ccccc1` (racemic) [Example 1-4, rac-N-[2-(Dimethylamino)-1-phenylethyl]-6-(naphthalen-2-yl)-4-oxo-4,5-dihydropyrazolo[1,5-a]-pyrazine-2-carboxamide]: the IC50 turned out to be 4.36 nM.

For `COc1ccc(C(CCO)NC(=O)c2cc3c(=O)[nH]c(-c4ccc(C)c(C)c4)cn3n2)cc1` (racemic) [Example 1-11, rac-6-(3,4-Dimethylphenyl)-N-[3-hydroxy-1-(4-methoxyphenyl)propyl]-4-oxo-5H-pyrazolo[1,5-a]-pyrazine-2-carboxamide], the IC50 stood at 2.15 nM.

For `Cc1ccc(-c2cn3nc(C(=O)NC(CCn4cncn4)c4ccccc4)cc3c(=O)[nH]2)cc1C` (racemic) [Example 1-12, rac-6-(3,4-Dimethylphenyl)-4-oxo-N-[1-phenyl-3-(1,2,4-triazol-1-yl)propyl]-5H-pyrazolo[1,5-a]-pyrazine-2-carboxamide], the IC50 stood at 1.67 nM.

On to `CC(C)(C)OC(=O)N1CC(C(NC(=O)c2cc3c(=O)[nH]c(-c4ccc5ccccc5c4)cn3n2)c2ccc(F)cc2)C1` (racemic) [Example 1-157, tert-Butyl 3-[(4-fluorophenyl)-[[6-(2-naphthyl)-4-oxo-5H-pyrazolo[1,5-a]pyrazine-2-carbonyl]amino]-methyl]azetidine-1-carboxylate (Racemate)], for which the IC50 amounted to 2.2 nM.

Regarding `Cc1ccc(-c2cn3nc(C(=O)NCC(O)C(F)(F)F)c(C4CC4)c3c(=O)[nH]2)cc1F` (racemic) [Example 1-159, 3-Cyclopropyl-6-(3-fluoro-4-methylphenyl)-4-oxo-N-(3,3,3-trifluoro-2-hydroxpropyl)-4,5-dihydro-pyrazolo[1,5-a]pyrazine-2-carboxamide (racemate)], the IC50 worked out at 2 nM.

Turning to `O=C(NC(CO)C(F)(F)F)c1nn2cc(-c3ccc(Cl)c(F)c3)[nH]c(=O)c2c1C1CC1` (single isomer, unassigned) [6-94], the half-inhibitory concentration (IC50) amounted to 5.8 nM.

In the case of `O=C(NC(c1ccc(F)cc1)C1(O)CC1)c1nn2cc(-c3ccc(Cl)c(F)c3)[nH]c(=O)c2c1C1CC1` (single isomer, unassigned) [6-97], the IC50 is 3.25 nM.

For the compound `O=C(NC(c1ccc(F)cc1)C1(O)CC1)c1nn2cc(-c3ccc(Cl)c(F)c3)[nH]c(=O)c2c1C1CC1` (single isomer, unassigned) [6-98], the half-inhibitory concentration (IC50) was 0.68 nM.

For the compound `Cc1ccc(-c2cn3nc(C(=O)NCC(O)C(F)(F)F)c(C(F)(F)F)c3c(=O)[nH]2)cc1C` (single isomer, unassigned) [6-117], the IC50 stood at 3.85 nM.

With `Cc1cc(-c2cn3nc(C(=O)NCC(N)C(F)(F)F)c(C4CC4)c3c(=O)[nH]2)ccc1C(F)(F)F` (single isomer, unassigned) [6-131], the IC50 was found to be 10.1 nM.

In the case of `Cc1cc(-c2cn3nc(C(=O)NCC(N)C(F)(F)F)c(C4CC4)c3c(=O)[nH]2)ccc1C(F)(F)F` (single isomer, unassigned) [6-132], the IC50 is 7.6 nM.

In the case of `Cc1ccc(-c2cn3nc(C(=O)NC4CC4C(C)C)c(C(F)(F)F)c3c(=O)[nH]2)cc1F` (single isomer, unassigned) [6-145], the IC50 was found to be 6.25 nM.

Take `Cc1ccc(-c2cn3nc(C(=O)NC(CO)c4ccc(F)cc4)c(C(F)(F)F)c3c(=O)[nH]2)cc1Cl` (single isomer, unassigned) [6-155]: the IC50 was found to be 2.8 nM.

For `Cc1ccc(-c2cn3nc(C(=O)NC(CO)c4ccc(F)cc4)c(C(F)(F)F)c3c(=O)[nH]2)cc1Cl` (single isomer, unassigned) [6-156], the IC50 turned out to be 1.3 nM.

With `Cc1ccc(-c2cn3nc(C(=O)NCC(O)C(F)(F)F)c(C(F)(F)F)c3c(=O)[nH]2)cc1Cl` (single isomer, unassigned) [6-159], the IC50 was determined as 2.3 nM.

Consider `Cc1ccc(-c2cn3nc(C(=O)NCC(O)C(F)(F)F)c(C(F)(F)F)c3c(=O)[nH]2)cc1Cl` (single isomer, unassigned) [6-160], for which the IC50 is 0.99 nM.

For `Cc1ccc(-c2cn3nc(C(=O)NC(CO)C(F)(F)F)c(C(F)(F)F)c3c(=O)[nH]2)cc1Cl` (single isomer, unassigned) [6-162], the IC50 was 9.55 nM.

Consider `Cc1ccc(-c2cn3nc(C(=O)NC(CO)C(F)(F)F)c(C(F)(F)F)c3c(=O)[nH]2)cc1Cl` (single isomer, unassigned) [6-163], for which the IC50 worked out at 2.3 nM.

Consider `Cc1ccc(-c2cn3nc(C(=O)NCC(C)(N)C(F)(F)F)c(C(F)(F)F)c3c(=O)[nH]2)cc1Cl` (single isomer, unassigned) [6-170], for which the IC50 was found to be 2.1 nM.

Turning to `Cc1ccc(-c2cn3nc(C(=O)NCC(C)(N)C(F)(F)F)c(C(F)(F)F)c3c(=O)[nH]2)cc1Cl` (single isomer, unassigned) [6-171], the IC50 came out at 2.3 nM.
